Test results from PubChem BioAssay AID602375 (Sanford-Burnham Center for Chemical Genomics, 2012).
The source made the active and inactive calls. The rule behind the calls is not given here.

Each molecule was assayed on S. cerevisiae tim23-1 mutant growth, luminescence (assay: tim23-1 mutant yeast growth inhibitors, SAR follow-up, luminescence, S. cerevisiae (AID 602375)).

| SMILES | IC50 |
| --- | --- |
| Cc1ccc2nc(NC(=O)C3CCCN3S(C)(=O)=O)sc2c1 (stereo unspecified) | 91.9 µM |
| Cc1ccc(S(=O)(=O)Cc2cc(=O)n3ccccc3n2)nc1 | > 99 µM (inactive) |
| O=C1OC(c2ccccc2)=N/C1=C\C=C\c1ccco1 | 2.44 µM |
| Cc1ccc(-c2nn(-c3ccccc3)cc2NC(=O)CCl)cc1 | 1.75 µM |
| Cc1nc2scc(C)n2c(=O)c1S(=O)(=O)Nc1ccc(N2CCN(S(C)(=O)=O)CC2)cc1 | > 99 µM (inactive) |
| CC(=O)c1ccc2[nH]c3c(c2c1)CCCC3=O | > 99 µM (inactive) |
| CC(C)Cn1cnc2c(c(-c3ccccc3)c(-c3ccccc3)n2Cc2ccco2)c1=N | 21.6 µM |
| N/C(=N\OC(=O)c1ccc2ccccc2c1)c1ccc(I)cc1 | > 99 µM (inactive) |
| O=C(Nc1nc2c(s1)Cc1ccccc1-2)c1ccc(Br)s1 | > 99 µM (inactive) |
| Cc1nc2scc(C)n2c(=O)c1S(=O)(=O)Nc1ccc(Oc2ccc(Cl)cc2)cc1 | > 99 µM (inactive) |
| CC(C)(C)c1csc(NC(=O)c2ccc(Cl)s2)n1 | 17.3 µM |
| O=C(N/N=C/C(Cl)=C\c1ccccc1)c1cccs1 | 2.3 µM |
| CN1CCN(c2nc(-c3cccnc3)nc3ccccc23)CC1 | > 99 µM (inactive) |
| Cc1ccc2nc(CSc3nc(C)c(C)c(C)c3C(N)=O)cc(=O)n2c1 | 29.6 µM |
| Cc1ccc(-c2cc(NC(=O)c3c(C)noc3C)nc(-c3ccccc3)c2)cc1 | > 99 µM (inactive) |
| N/C(=N\OC(=O)c1ccc(Cl)cc1)c1ccc(Oc2ccc(C(F)(F)F)cn2)cc1 | 0.57 µM |
| N=c1c2c(-c3ccccc3)c(-c3ccccc3)n(Cc3ccco3)c2ncn1CCCN1CCOCC1 | > 99 µM (inactive) |
| Cc1ccc(/C(N)=N/OC(=O)c2ccccc2)cc1F | 1.52 µM |
| COc1ccc(Cl)cc1NS(=O)(=O)c1c(C)nc2scc(C)n2c1=O | > 99 µM (inactive) |
| Cc1csc(NC(=O)c2sc3nc4c(cc3c2N)CN(C)CC4)n1 | > 99 µM (inactive) |
| N#C/C(=C\c1ccc(Cl)cc1)C(=O)Nc1cccnc1 | 16 µM |
| O=C(Nc1ccn[nH]1)c1ccc(Br)cc1Cl | > 99 µM (inactive) |

| SMILES | IC50 |
| --- | --- |
| Cc1cc2cc(CNC(=O)c3ccc(F)c(F)c3)ccc2[nH]1 | > 99 µM (inactive) |
| N#Cc1c(-c2ccc([N+](=O)[O-])cc2)cc(-c2ccccc2)nc1N | > 99 µM (inactive) |
| CCN(CC)S(=O)(=O)c1ccc(C(=O)OCn2nnc3ccccc3c2=O)cc1 | 13 µM |
| O=c1cc(CSc2ccc(S(=O)(=O)N3CCCCC3)cn2)nc2ccc(Br)cn12 | 70.2 µM |
| Cc1nc2scc(C)n2c(=O)c1S(=O)(=O)Nc1ccc(N2CCN(C(=O)C(C)C)CC2)cc1 | > 99 µM (inactive) |
| COc1ccc([N+](=O)[O-])cc1NS(=O)(=O)c1c(C)nc2scc(C)n2c1=O | > 99 µM (inactive) |
| CN(C(=O)c1cccc(S(C)(=O)=O)c1)c1c(N)n(Cc2ccccc2)c(=O)[nH]c1=O | > 99 µM (inactive) |
| N/C(=N\OC(=O)c1ccc(Cl)cc1)c1ccc(Cl)cc1 | 3.02 µM |
| CC(=O)Nc1ccc(C(C(F)(F)F)(C(F)(F)F)C(F)(F)F)cc1 | > 99 µM (inactive) |
| O=C(Nc1nc2ccccc2s1)C1CCCN1S(=O)(=O)c1ccc(Cl)cc1 (stereo unspecified) | 12 µM |
| C(/C=C/c1ccccc1)=NNc1nc2ccccc2[nH]1 | 11.2 µM |
| O=S(=O)(Nc1ccc(-c2cn3c(n2)SCC3)cc1)c1cccnc1 | > 99 µM (inactive) |
| N#Cc1ccc(C2N=C(c3ccccc3)NO2)cc1 (stereo unspecified) | > 99 µM (inactive) |
| Cc1nc2scc(C)n2c(=O)c1S(=O)(=O)Nc1ccc(N2CCOCC2)cc1 | 16.3 µM |
| CCn1c(N2CCN(S(=O)(=O)c3ccc(OC)cc3)CC2)nc2ccccc21 | 3.69 µM |
| N/C(=N\OC(=O)c1ccc(Cl)cc1)c1ccc2nonc2c1 | > 99 µM (inactive) |
| CCOc1ccc(C(=O)O/N=C(\N)c2ccc(OC)cc2)cc1OCC | 1.48 µM |
| O=C(Nc1ccc2nc(-c3ccc(Br)o3)[nH]c2c1)c1cccs1 | 0.882 µM |
| Cc1nc2scc(C)n2c(=O)c1S(=O)(=O)Nc1ccccc1 | > 99 µM (inactive) |
| O=C(NN=C/C=C\c1ccco1)c1cccs1 | 6.87 µM |
| CCOc1ccc2nc(N3C(=O)CNC3=S)sc2c1 | > 99 µM (inactive) |
| O=C(Nc1ccn[nH]1)c1cccc(OCc2cccnc2)c1 | > 99 µM (inactive) |

| SMILES | IC50 |
| --- | --- |
| Cc1cccn2c(=O)cc(CSc3cc(C(=O)NC4CC4)c4ccccc4n3)nc12 | > 99 µM (inactive) |
| O=C(Nc1ccc2nc(-c3ccco3)[nH]c2c1)c1cccs1 | 0.459 µM |
| O=C(CSc1cccc[n+]1[O-])Nc1ccccc1Oc1ccccc1 | 1.06 µM |
| Cc1nc2scc(C)n2c(=O)c1S(=O)(=O)Nc1ccc(F)cc1Cl | 52.7 µM |
| Cc1ccc2nc(N3CCN(S(C)(=O)=O)CC3)[nH]c2c1 | > 99 µM (inactive) |
| O=c1cc(C(F)F)oc2c1ccc1ccccc12 | > 99 µM (inactive) |
| Cc1nn(Cc2cccc(C(=O)O/N=C(\N)c3ccc(Cl)cc3)c2)c(C)c1Br | 2.65 µM |
| Cn1c(SCc2cccc(/C(N)=N/OC(=O)c3ccc(Cl)cc3)c2)nnc1C(F)(F)F | 2.37 µM |
| CCCN(C(=O)c1ccc([N+](=O)[O-])c(C)c1)c1c(N)n(Cc2ccccc2)c(=O)[nH]c1=O | 0.987 µM |
| CC(=O)c1ccc(NS(=O)(=O)c2c(C)nc3scc(C)n3c2=O)cc1 | 15.9 µM |
| N#Cc1c(-c2ccccc2)cc(-c2ccc(O)cc2)nc1N | 2.9 µM |
| O=C(O/N=C(/c1ccc(Br)cc1)N1CCOCC1)c1ccccc1 | 0.787 µM |
| COc1ccc2c(C)cc(SCc3cc(=O)n4cc(C)ccc4n3)nc2c1 | > 99 µM (inactive) |
| Cc1c2c(n(Cc3ccco3)c1C)N=CN1CCS(=O)(=O)N=C21 | > 99 µM (inactive) |
| CN1CCc2nc3sc(C(=O)C45CC6CC(CC(C6)C4)C5)c(N)c3cc2C1 | 18.1 µM |
| N/C(Cc1ccc(Cl)cc1)=N\OC(=O)COc1ccccc1Cl | 4.54 µM |
| O=C(Nc1ccc(-c2cn3ccccc3n2)cc1)c1cccs1 | 0.897 µM |
| CCN1CCc2nc3sc(C(=O)Nc4cc(Cl)ccc4OC)c(N)c3cc2C1 | > 99 µM (inactive) |
| CCN(C(=O)c1cccc2ncccc12)c1c(N)n(Cc2ccccc2)c(=O)[nH]c1=O | > 99 µM (inactive) |
| Cc1nc2scc(C)n2c(=O)c1S(=O)(=O)Nc1cccc(O)c1 | > 99 µM (inactive) |
| Cc1nc2scc(C)n2c(=O)c1S(=O)(=O)Nc1ccc(N2CCOCC2)c(Cl)c1 | > 99 µM (inactive) |
| O=c1cc(CSc2ccc(C(F)(F)F)cn2)nc2ccc(Br)cn12 | > 99 µM (inactive) |

| SMILES | IC50 |
| --- | --- |
| COc1ccc(/C=C/C(=O)Nc2ccc3c(c2)CCC3)cc1OC | 1.72 µM |
| Cc1ccc2nc(CSc3ccc(S(=O)(=O)N4CCCC4)cn3)cc(=O)n2c1 | > 99 µM (inactive) |
| N/C(=N\OC(=O)c1ccc2ncsc2c1)c1ccccc1 | 14.8 µM |
| Cc1nc2scc(C)n2c(=O)c1S(=O)(=O)Nc1cc(C(F)(F)F)ccc1Cl | > 99 µM (inactive) |
| Cc1nc2scc(C)n2c(=O)c1S(=O)(=O)Nc1ccc(OC(F)(F)F)cc1 | 16.5 µM |
| Cc1ccc2nc(CS(=O)(=O)c3ncccc3Cl)cc(=O)n2c1 | > 99 µM (inactive) |
| COc1ccc(C2N=C(c3ccccc3C)NO2)cc1O (stereo unspecified) | > 99 µM (inactive) |
| CCOc1cc2ccccc2cc1C(=O)O/N=C(\N)c1ccc(Cl)cc1 | 1.57 µM |
| Cc1nc2scc(C)n2c(=O)c1S(=O)(=O)Nc1ccc(Cl)c(C(F)(F)F)c1 | > 99 µM (inactive) |
| Cc1ccc(-c2nc3ccc(NC(=O)c4cccs4)cc3[nH]2)o1 | 1.42 µM |
| O=C(O)c1cccnc1SCc1cc(=O)n2cc(Br)ccc2n1 | > 99 µM (inactive) |
| N/C(Cc1cccc2ccccc12)=N\OC(=O)COc1ccc(Cl)cc1Cl | 19.1 µM |
| CC1(C)C=Cc2cc(/C(N)=N/OC(=O)c3ccccc3)ccc2O1 | 0.617 µM |
| COc1ccc(/C(N)=N/OC(=O)c2ccc(C(F)(F)F)cc2)c(OC)c1 | > 99 µM (inactive) |
| Cc1cc(OCC(=O)O/N=C(\N)Cc2ccc(Cl)cc2)ccc1Br | 3.69 µM |
| N/C(=N\OC(=O)c1ccc(Cl)cc1)c1ccc(-c2csnn2)cc1 | > 99 µM (inactive) |
| O=c1cc(CSc2ccccn2)nc2ccccn12 | > 99 µM (inactive) |
| Cc1nc(SCc2cc(=O)n3cc(Br)ccc3n2)c(C#N)c(C)c1C | > 99 µM (inactive) |
| N/C(=N\OC(=O)c1ccc2ncsc2c1)c1ccc(Cl)cc1Cl | 1.48 µM |
| O=C(CSCc1ccccc1)Nc1cc(S(=O)(=O)N2CCOCC2)ccc1Oc1ccccc1 | > 99 µM (inactive) |
